“And” between values parts separate entries of the source, which are not always exact repeats. Equal values may be shown once. Read-outs that look alike come from different tables or passages of the source.
Key:
[1] = system: MDA-MB-231 (Mammary Gland, Adenocarcinoma); test: WST-1 cell viability, breast cancer cell line MDA-MB-231; assay type: cell-based; conditions: Homo sapiens
Experimental: (§1) The cell numbers were counted and reseed as 2×10^6 in culture plate/flask. Then, the culture medium were added to a volume of 10 ml, and the cells were cultured for 2-3 days. Then, the cells were suspended for loading into 96-well plates. The number of cells was 3000 and the volume of the culture medium was 100 μl each well.
(§2) Removing the original culture medium from 96-well plate. Then add 100 μl of commercially drug at a concentration of 10 μM per well. After 72 hours, add the diluted WST-1 reagent to the well with 100 μl/well, and the diluted WST-1 reagent was acquired from the dilution of 9:1 medium and WST-1 stock reagent. Finally, the total volume of each well was 200 μl/well. Culture the 96-well plate at 37° C. for 30 to 90 minutes. Detecting and calculate the survival rate of each cancer cells with an ELISA reader at OD450 nm.

[2] = system: BCC (basal cell carcinoma); test: WST-1 cell viability, skin cancer cell line BCC; assay type: cell-based; conditions: 72 h
Experimental: as §1, §2

normal cells = test: Toxicity to normal cells (cell viability); assay type: cell-based
Description: Subculture the different types of cancer cells. The cancer cells includes lung cancer, gastric cancer, hepatic cancer, colon cancer, skin cancer, cervical cancer, prostate cancer, bladder cancer, breast cancer, leukemia, pancreatic cancer, ovarian cancer, tongue cancer, osteosarcoma, and renal cancer. The normal cells used in the control group included kidney cells (HEK293), canine fibroblast cell line HFW, and human bronchial epithelial cell line BEAS-2B.
as §2

colorectal cancer cells = test: Summary of cell viability, colorectal cancer; assay type: cell-based; conditions: 72 h, read-out: Inhibitory effect
Experimental: as §2

TSGH = test: WST-1 cell viability, bladder cancer cell line TSGH; assay type: cell-based; conditions: 72 h
Experimental: as §1, §2

[3] = system: HepG2 (hepatocellular carcinoma); test: WST-1 cell viability, hepatic cancer cell line HepG2; assay type: cell-based; conditions: Homo sapiens
Experimental: as §1, §2

NIH-OVCAR-3 = test: WST-1 cell viability, ovarian cancer cell line NIH-OVCAR-3; assay type: cell-based; conditions: Homo sapiens
Experimental: as §1, §2

[4] = system: gastric cancer cells (AGS); test: Animal model test of gastric cancer, tumor size; assay type: in vivo, mice
Experimental: In this invention, the female mice were (BALB/cAnN.Cg-Foxn1^nu/CrlNarl) purchased from National Laboratory Animal Center (Taiwan). The weight of the mice were 21±1 g. These mice were subcutaneously injected with gastric cancer cells (AGS) and then put these mice into different cage sat random. The drug test experiment was divided into three groups, include “control group”, “low dose group (100 mg/kg/day)”, and “high dose group (200 mg/kg/day)”. These mice were then injected test drug intraperitoneally once daily […]. The tumor sizes and body weight were measured twice a week. The tumor sizes were measured and calculated by formula: (L×W^2)/2. L represents the tumor longest length. W represents the tumor shortest diameter.

skin cancer cells = test: Summary of cell viability, skin cancer; assay type: cell-based; conditions: 72 h, read-out: Inhibitory effect
Experimental: as §2

[5] = system: A375 (amelanotic melanoma); test: WST-1 cell viability, skin cancer cell line A375; assay type: cell-based; conditions: Homo sapiens
Experimental: as §1, §2

[6] = system: LoVo(Colorectal Adenocarcinoma); test: WST-1 cell viability, colorectal cancer cell line LoVo; assay type: cell-based; conditions: Homo sapiens, 72 h
Experimental: as §1, §2

[7] = system: AGS (Gastric Adenocarcinoma); test: WST-1 cell viability, gastric cancer cell line AGS; assay type: cell-based; conditions: 72 h
Experimental: as §1, §2

[8] = average of 4 tests, read-out: survival rate (inhibition effect), Average
[9] = run 0510-10 min, read-out: survival rate (inhibition effect)
[10] = run 0512-10 min, read-out: survival rate (inhibition effect)
[11] = run 0515-10 min, read-out: survival rate (inhibition effect)
[12] = run 0517-10 min, read-out: survival rate (inhibition effect)
[13] = 100 mg/kg/day i.p., Fifth measurement
[14] = 100 mg/kg/day i.p., Fifth measurement, mice A, B, C
[15] = 100 mg/kg/day i.p., First measurement
[16] = 100 mg/kg/day i.p., First measurement, mice A, B, C
[17] = 100 mg/kg/day i.p., Fourth measurement
[18] = 100 mg/kg/day i.p., Fourth measurement, mice A, B, C
[19] = 100 mg/kg/day i.p., Second measurement
[20] = 100 mg/kg/day i.p., Second measurement, mice A, B, C
[21] = 100 mg/kg/day i.p., Third measurement
[22] = 100 mg/kg/day i.p., Third measurement, mice A, B, C
[23] = 200 mg/kg/day i.p., Fifth measurement
[24] = 200 mg/kg/day i.p., Fifth measurement, mice A, B, C
[25] = 200 mg/kg/day i.p., First measurement
[26] = 200 mg/kg/day i.p., First measurement, mice A, B, C
[27] = 200 mg/kg/day i.p., Fourth measurement
[28] = 200 mg/kg/day i.p., Fourth measurement, mice A, B, C
[29] = 200 mg/kg/day i.p., Second measurement
[30] = 200 mg/kg/day i.p., Second measurement, mice A, B, C
[31] = 200 mg/kg/day i.p., Third measurement

Fc1ccc([C@@H]2CCNC[C@H]2COc2ccc3c(c2)OCO3)cc1 [Paroxetine]
viability at 10 µM ([1]; MDA-MB-231, 72 h, MDA-MB-231, average of 4 tests, read-out: survival rate (inhibition effect), Average): 41.8%
viability at 10 µM ([1]; MDA-MB-231, MDA-MB-231, 72 h, run 0612-10 min, read-out: survival rate (inhibition effect)): 47.9%
viability at 10 µM ([1]; MDA-MB-231, MDA-MB-231, 72 h, run 0614-10 min, read-out: survival rate (inhibition effect)): 35.9%
viability at 10 µM ([1]; MDA-MB-231, MDA-MB-231, 72 h, run 0616-10 min, read-out: survival rate (inhibition effect)): 42%
viability at 10 µM ([1]; MDA-MB-231, MDA-MB-231, 72 h, run 0619-10 min, read-out: survival rate (inhibition effect)): 41.2%
viability at 10 µM [2, 8]: 58.2%
viability at 10 µM ([2]; run 0602-30 min, read-out: survival rate (inhibition effect)): 42.1%
viability at 10 µM ([2]; run 0605-10 min, read-out: survival rate (inhibition effect)): 52.6%
viability at 10 µM ([2]; run 0607-10 min, read-out: survival rate (inhibition effect)): 41.1%
viability at 10 µM ([2]; run 0609-10 min, read-out: survival rate (inhibition effect)): 97%
toxicity to normal cells (normal cells): no toxicity or had little toxicity
viability at 10 µM (colorectal cancer cells): 43.2%
viability at 10 µM (TSGH; [8]): 38.4%
viability at 10 µM (TSGH; [9]): 37.1%
viability at 10 µM (TSGH; [10]): 37.4%
viability at 10 µM (TSGH; [11]): 36.8%
viability at 10 µM (TSGH; [12]): 42.2%
viability at 10 µM ([3]; HepG2, 72 h, HepG2, average of 4 tests, read-out: survival rate (inhibition effect), Average): 54.1%
viability at 10 µM ([3]; HepG2, HepG2, 72 h, run 0524-20 min, read-out: survival rate (inhibition effect)): 66.4%
viability at 10 µM ([3]; HepG2, HepG2, 72 h, run 0526-20 min, read-out: survival rate (inhibition effect)): 58.3%
viability at 10 µM ([3]; HepG2, HepG2, 72 h, run 0529-20 min, read-out: survival rate (inhibition effect)): 50.1%
viability at 10 µM ([3]; HepG2, HepG2, 72 h, run 0531-20 min, read-out: survival rate (inhibition effect)): 41.7%
viability at 10 µM (NIH-OVCAR-3; OVCAR-3, 72 h, NIH-OVCAR-3, average of 4 tests, read-out: survival rate (inhibition effect), Average): 86%
viability at 10 µM (NIH-OVCAR-3; OVCAR-3, NIH-OVCAR-3, 72 h, run 7-3-30 min, read-out: survival rate (inhibition effect)): 80.2%
viability at 10 µM (NIH-OVCAR-3; OVCAR-3, NIH-OVCAR-3, 72 h, run 7-4-30 min (fourth column), read-out: survival rate (inhibition effect)): 97.8%
viability at 10 µM (NIH-OVCAR-3; OVCAR-3, NIH-OVCAR-3, 72 h, run 7-4-30 min (second column), read-out: survival rate (inhibition effect)): 81.9%
viability at 10 µM (NIH-OVCAR-3; OVCAR-3, NIH-OVCAR-3, 72 h, run 7-7-30 min, read-out: survival rate (inhibition effect)): 83.9%
Tumor volume growth, average [4, 13]: −8.333 mm3
volume, average [4, 13]: 63.333 mm3
longest length [4, 14]: 6 mm and 4 mm
width [4, 14]: 6 mm and 5 mm and 4 mm
Tumor volume growth, average [4, 15]: 113.1667 mm3
volume, average [4, 15]: 113.1667 mm3
Tumor volume growth [4, 16]: 87.5 mm3 and 144 mm3 and 108 mm3
longest length [4, 16]: 7 mm and 8 mm and 6 mm
volume [4, 16]: 87.5 mm3 and 144 mm3 and 108 mm3
width [4, 16]: 5 mm and 6 mm
Tumor volume growth, average [4, 17]: −18.167 mm3
volume, average [4, 17]: 71.667 mm3
longest length [4, 18]: 6 mm and 4 mm
width [4, 18]: 6 mm and 4 mm and 5 mm
Tumor volume growth, average [4, 19]: −4.167 mm3
volume, average [4, 19]: 109 mm3
longest length [4, 20]: 6 mm and 7 mm
volume [4, 20]: 75 mm3 and 126 mm3
width [4, 20]: 5 mm and 6 mm
Tumor volume growth, average [4, 21]: −19.167 mm3
volume, average [4, 21]: 89.833 mm3
longest length [4, 22]: 7 mm
width [4, 22]: 6 mm and 4 mm and 5 mm
Tumor volume growth, average [4, 23]: 0 mm3
volume, average [4, 23]: 0 mm3
Tumor volume growth [4, 24]: 0 mm3
longest length [4, 24]: 0 mm
volume [4, 24]: 0 mm3
width [4, 24]: 0 mm
Tumor volume growth, average [4, 25]: 78.5 mm3
volume, average [4, 25]: 78.5 mm3
longest length [4, 26]: 6 mm and 8 mm and 7 mm
width [4, 26]: 4 mm and 5 mm
Tumor volume growth, average [4, 27]: −13.33 mm3
volume, average [4, 27]: 0 mm3
longest length [4, 28]: 0 mm
volume [4, 28]: 0 mm3
width [4, 28]: 0 mm
Tumor volume growth, average [4, 29]: −25.8333 mm3
volume, average [4, 29]: 52.67 mm3
longest length [4, 30]: 6 mm and 5 mm and 7 mm
width [4, 30]: 4 mm and 3 mm and 5 mm
Tumor volume growth, average [4, 31]: −39.33 mm3
volume, average [4, 31]: 13.333 mm3
inhibition effect on tumor cells ([4]; both low dose and high dose, FIG. 2): significant inhibition effect
Tumor volume growth ([4]; both low dose and high dose, FIG. 3): effectively slow down the tumor volume growth
inhibition of tumor growth, high doses compared with low ([4]; high doses, FIG. 3): better effect to inhibit tumor growth
viability at 10 µM (skin cancer cells): 51%
viability at 10 µM ([5]; A-375, 72 h, A375, average of 4 tests, read-out: survival rate (inhibition effect), Average): 43.8%
viability at 10 µM ([5]; A-375, A375, 72 h, run 0602-30 min, read-out: survival rate (inhibition effect)): 46.8%
viability at 10 µM ([5]; A-375, A375, 72 h, run 0605-10 min, read-out: survival rate (inhibition effect)): 44.4%
viability at 10 µM ([5]; A-375, A375, 72 h, run 0607-10 min, read-out: survival rate (inhibition effect)): 35.4%
viability at 10 µM ([5]; A-375, A375, 72 h, run 0609-10 min, read-out: survival rate (inhibition effect)): 48.8%
viability at 10 µM [6, 8]: 58%
viability at 10 µM ([6]; run 0616-10 min, read-out: survival rate (inhibition effect)): 54.1%
viability at 10 µM ([6]; run 0619-10 min, read-out: survival rate (inhibition effect)): 51.5%
viability at 10 µM ([6]; run 0621-10 min, read-out: survival rate (inhibition effect)): 77.3%
viability at 10 µM ([6]; run 0623-10 min, read-out: survival rate (inhibition effect)): 48.9%
viability at 10 µM [7, 8]: 12.2%
viability at 10 µM [7, 9]: 12%
viability at 10 µM [7, 10]: 11.1%
viability at 10 µM [7, 11]: 12.7%
viability at 10 µM [7, 12]: 12.8%

From patent US20170304286A1 (LAUNX BIOMEDICAL CO., LTD., priority 2014, published 2017)
